Reference: patent publication US20240002405A1, “ANTIMICROBIAL COMPOUNDS, SYNTHESIS METHODS, AND USES THEREOF” (Ankh Life Sciences Limited, priority 2022, published 2024)
≈ marks a conversion by molar mass, not a printed value. Where two headings read alike, the source gives them in different places.

Tests used:
[1] = tested on: gram positive and negative bacteria; assay: Antibacterial testing against gram positive and negative bacteria; format: cell-based
Description: In addition to the harmaline dimers compounds, other bicyclic indole compounds (203, 233, 476/6 and 504/6,) were also tested against gram positive and negative bacteria. Particularly, the indole ethyl urea molecules 203, 233 and the tryptamide dimer molecules 476/6, 504/6, as shown below, were tested.

S. aureus (ATCC 29213) [2] = assay: Broth microdilution MIC assay, S. aureus; settings: for MIC: Staphylococcus aureus
E. coli (ATCC 25922) = assay: Broth microdilution MIC assay, E. coli; settings: E. coli
[3] = tested on: Candida albicans (ATCC 18804); assay: Antifungal broth microdilution MIC assay; format: cell-based; settings: Candida albicans, ATCC18804, C. albicans, read-out: MIC (antifungal growth inhibition)
Description: Synthesized compounds were tested for antifungal activity towards the fungus strain, Candida albicans. […] Different concentrations of the compounds were tested for the exact same number of fungi, and the growth is monitored with time. MIC was determined by using the broth microdilution assay. Fungus strain, C. albicans was purchased from ATCC (ID: 18804) for the studies. […] This solution was used to make a working solution by preparing a 1:50 dilution, followed by a 1:20 dilution, with RPMI 1640 medium to obtain 2× test inoculum. The 2× inoculum is diluted 1:1 to achieve the final inoculum size (0.5×10^3 to 2.5×10^3 cells per mL). RPMI 1640 medium was used with L-glutamine and phenol red as a pH indicator but without bicarbonate and a glucose concentration of 0.2%. […] All plates were then read visually under normal laboratory lighting using a mirror viewer. Wells were scored for the growth compared to that of the drug free control well. Plates were read at 530 nm with subtraction of the blank from the reading of each well. Turbidity (OD) increases as the fungus grows over time.

[4] = tested on: MRSA: S. aureus resistant to methicillin and oxacillin (ATCC 43300); assay: Broth microdilution MIC assay, MRSA; settings: Staphylococcus aureus, ATCC43300|MRSA, 24 h, read-out: MIC (bacterial growth inhibition)
MRSA (ATCC 43300) = assay: Minimum bactericidal concentration (MBC) assay, MRSA; format: cell-based; settings: Staphylococcus aureus, MRSA
Description: (§1) (f) Determination of MBC: MBC was determined by sampling all the macroscopically clear wells. Before sampling, the wells were gently mixed by flushing them with a pipette, and a 5 μL was removed and placed on an agar plate suitable for the growth of the microbe being tested. The agar plate was divided into three parts to test three trials of a single concentration. The sample was allowed to be absorbed into the agar for ˜30 minutes. The plates were then incubated for 24 hours at 37° C. After incubation, the plates were examined to determine the compound concentration at which 99.9% killing was achieved.

S. aureus (ATCC 29213) [5] = assay: Minimum bactericidal concentration (MBC) assay, S. aureus; format: cell-based; settings: Staphylococcus aureus, ATCC29213, 24 h; S. aureus; read-out: MBC (kills bacteria)
Description: as §1

[6] = ATCC29213, read-out: MIC (bacterial growth inhibition), S. aureus, time not given

Compound | MIC (S. aureus (ATCC 29213) [2]; [6]) | bacteriostatic/bactericidal activity [1] | concentration showing ~50% growth inhibition (E. coli (ATCC 25922)) | also measured
COc1ccc2c(CCNC(=O)CCCC(=O)NCCc3c[nH]c4cc(OC)ccc34)c[nH]c2c1 [476/6] | – | no bacteriostatic/bactericidal activity observed | – | –
COc1ccc2c(CCNC(=O)CC(C)(C)CC(=O)NCCc3c[nH]c4cc(OC)ccc34)c[nH]c2c1 [504/6] | – | no bacteriostatic/bactericidal activity observed | – | –
NC(=O)NCCc1c[nH]c2ccccc12 [Compound 203] | – | no bacteriostatic/bactericidal activity observed | – | –
COc1ccc2[nH]cc(CCNC(N)=O)c2c1 [Compound 233] | – | no bacteriostatic/bactericidal activity observed | – | –
COc1ccc2c3c([nH]c2c1)C(CC(CC1=NCCc2c1[nH]c1cc(OC)ccc21)C1CC1)=NCC3 [GK480] | – | – | – | concentration at which activity is shown (S. aureus (ATCC 29213) [2]; S. aureus): 3.25 µg/mL; concentration at which activity is shown (E. coli (ATCC 25922)): 50 µg/mL
COc1ccc2c3c([nH]c2c1)C(CC(CC1=NCCc2c1[nH]c1cc(OC)ccc21)c1ccccn1)=NCC3 [GK517.2] | – | – | – | MIC [4]: 64.7 mg/L (≈ 125 µM); MBC (MRSA (ATCC 43300); read-out: MBC): > 129 mg/L; MBC (MRSA (ATCC 43300); read-out: MRSA-MBC): > 250 µM; MBC (S. aureus (ATCC 29213) [5]): > 129 mg/L; MIC (S. aureus (ATCC 29213) [2]; ATCC29213, 24 h, read-out: MIC (bacterial growth inhibition), S. aureus, up to 24 hours): 64.7 mg/L (≈ 125 µM); MIC (bacterial growth inhibition) (E. coli (ATCC 25922)): no activity was observed

Continued, in another order:

MIC (S. aureus (ATCC 29213) [2]; [6]) | Compound | bacteriostatic/bactericidal activity [1] | concentration showing ~50% growth inhibition (E. coli (ATCC 25922)) | also measured
100 mg/L (≈ 315 µM) | COc1ccc2c3c([nH]c2c1)C(/C=C/c1ccccc1N)=NCC3 [GK317] | – | – | MIC (bacterial growth inhibition) (E. coli (ATCC 25922)): didn't show any activity
25 mg/L (≈ 71.1 µM) | COc1ccc2c3c([nH]c2c1)C(/C=C/c1cc(Cl)ccc1N)=NCC3 [GK350] | – | 1.5 µg/mL | –
12.5 mg/L (≈ 34.6 µM) | COc1ccc2c3c([nH]c2c1)C(/C=C/c1cc(C(=O)O)ccc1N)=NCC3 [GK360] | – | 0.78 µg/mL | MIC ([3]; after 24 hours of incubation): 50 mg/L (≈ 138 µM)
25 mg/L (≈ 63.1 µM) | COc1ccc2c3c([nH]c2c1)C(/C=C/c1cc(Br)ccc1N)=NCC3 [GK395] | – | 3.5 µg/mL | MIC ([3]; after 48 hours of incubation): 50 mg/L (≈ 126 µM)
